Test results as given in patent publication US8232305B2, “Anti-microbial compositions” (BASF SE, priority 2006, dated 2012).

What was measured:
[1] = test system: Penicillium funiculosum; assay: Fungicidal activity according to EN12175; assay type: cell-based; conditions: spores about 10^6 cfu/ml, vs water control; for log reduction P. funiculosum 30 min: 1%
Experimental: (§1) Fungicidal activity is tested according to EN12175. A fungal spore suspension with a spore cell count of about 10^6 cfu/ml is contacted with appropriate concentrations of the specific substances and the residual spore cell count determined after incubation times of 30 and 60 minutes at room temperature under continuous stirring. Penicillium funiculosum, Aspergillus niger and Aureobasidium pullulans are tested as important mold strains. The results are given as a log reduction at each incubation time in comparison to a water control.

[2] = test system: Aureobasidium pullulans; assay: Fungicidal activity according to EN12175; assay type: cell-based; conditions: spores about 10^6 cfu/ml, vs water control; for log reduction A. pullulans 30 min: 1%
Experimental: as §1

[3] = test system: Aspergillus niger; assay: Fungicidal activity according to EN12175; assay type: cell-based; conditions: spores about 10^6 cfu/ml, vs water control; for log reduction A. niger 30 min: 1%
Experimental: as §1

[4] = test system: Staphylococcus aureus; assay: Microbicidal activity according to EN1040; assay type: cell-based; conditions: 1000 ppm, room temperature, vs growth control in water
Experimental: (§2) A bacterial suspension with a cell count of about 10^7 cfu/ml is contacted with appropriate concentrations of the specific substances and the residual cell count determined after incubation times of 5 and 30 minutes at room temperature under continuous stirring. Staphylococcus aureus was tested as gram+ and Escherichia coli as gram− organism. The results are given as a log reduction in comparison to a growth control in water.

[5] = test system: Escherichia coli; assay: Microbicidal activity according to EN1040; assay type: cell-based; conditions: 1000 ppm, room temperature, vs growth control in water
Experimental: as §2

[6] = test system: S. aureus ATCC 6538; assay: Microbicidal activity under conditions similar to a preservative challenge test; assay type: cell-based; conditions: 0.5%, inoculum 10^5 cfu/ml
Experimental: as §2
(§3) The test procedure of Example 7 is used, with an inoculum concentration of 10^5 cfu/ml and incubation times of 48 and 72 hours; figures given as log reduction.

[7] = test system: C. albicans ATCC 10231; assay: as above; assay type: cell-based; conditions: 0.5%, inoculum 10^5 cfu/ml
Experimental: as §2, §3

[8] = test system: A. niger ATCC 16404; assay: as above; assay type: cell-based; conditions: 0.5%, inoculum 10^5 cfu/ml
Experimental: as §2, §3

[9] = test system: E. coli ATCC 10536; assay: as above; assay type: cell-based; conditions: 0.5%, inoculum 10^5 cfu/ml
Experimental: as §2, §3

[10] = test system: P. aeruginosa ATCC 15442; assay: as above; assay type: cell-based; conditions: 0.5%, inoculum 10^5 cfu/ml
Experimental: as §2, §3

[11] = test system: C. albicans; assay: Preservative challenge test in cosmetic emulsions (EurPh and USP); assay type: cell-based; conditions: 0.5% w/w
Experimental: (§4) A preservative challenge test is conducted for representative cosmetic formulations according to the conditions of the EurPh and USP. The compound concentration in the formulations is 0.5% w/w. The Inoculum concentration of the five different strains is 2.1-4.2×10^5 cfu/ml, incubation time according to EurPh. 2, 7, 14 and 28 days. Preservation is investigated in two different emulsion types, w/o and o/w.

[12] = test system: A. niger; assay: as above; assay type: cell-based; conditions: 0.5% w/w
Experimental: as §4

[13] = test system: E. coli; assay: as above; assay type: cell-based; conditions: 0.5% w/w
Experimental: as §4

[14] = test system: P. aerug.; assay: as above; assay type: cell-based; conditions: 0.5% w/w
Experimental: as §4

[15] = test system: S. aureus; assay: as above; assay type: cell-based; conditions: 0.5% w/w
Experimental: as §4

[16] = Formulation of stable w/o or o/w emulsions; assay type: physicochemical; conditions: comparable concentrations (0.5% w/w) in the w/o and o/w emulsions of Example 10

In the case of `CCCCOC(=O)C[n+]1ccn(C)c1.[Br-]` [Ex 3], the “log reduction P. funiculosum 30 min” value [1] is reported as <1 log, the “log reduction P. funiculosum 1 h” value [1] is reported as <1 log and the “log reduction A. pullulans 30 min” value [2] is reported as <1 log. For the same compound, the “log reduction A. pullulans 1 h” value [2] was <1 log, the “log reduction A. niger 30 min” value [3] was <1 log and the “log reduction A. niger 1 h” value [3] was <1 log. For the same compound, the “log reduction S. aureus 5 min.” value [4] was <1 log, the “log reduction S. aureus 30 min.” value [4] was <1 log and the “log reduction E. coli 5 min.” value [5] was <1 log. For the same compound, the “log reduction E. coli 30 min.” value [5] was <1 log, the “log reduction S. aureus ATCC 6538 48 h” value [6] was >3 log and the “log reduction S. aureus ATCC 6538 72 h” value [6] was >3 log. The “log reduction C. albicans ATCC 10231 48 h” value [7] was 1.4 log, the “log reduction C. albicans ATCC 10231 72 h” value [7] was 1.7 log and the “log reduction A. niger ATCC 16404 48 h” value [8] was <1 log. The “log reduction A. niger ATCC 16404 72 h” value [8] was <1 log, the “log reduction E. coli ATCC 10536 48 h” value [9] was >3 log and the “log reduction E. coli ATCC 10536 72 h” value [9] was >3 log. The “log reduction P. aeruginosa ATCC 15442 48 h” value [10] was >3 log and the “log reduction P. aeruginosa ATCC 15442 72 h” value [10] was >3 log.

For `CCCCCCCCCCCCOC(=O)C[n+]1ccn(C)c1.[Br-]` [Ex 4], the “log reduction P. funiculosum 30 min” value [1] was <1 log, the “log reduction P. funiculosum 1 h” value [1] was 1.9 log and the “log reduction A. pullulans 30 min” value [2] was >4 log. The “log reduction A. pullulans 1 h” value [2] was >4 log, the “log reduction A. niger 30 min” value [3] was 2.1 log and the “log reduction A. niger 1 h” value [3] was >4 log. For the same compound, the “log reduction S. aureus 5 min.” value [4] was >5 log, the “log reduction S. aureus 30 min.” value [4] was >5 log and the “log reduction E. coli 5 min.” value [5] was >5 log. For the same compound, the “log reduction E. coli 30 min.” value [5] was >5 log, the “Log Reduction C. albicans” value ([11]; O/W emulsion, 2 days) was 0 log and the “Log Reduction C. albicans” value ([11]; O/W emulsion, 7 days) was 0 log. For the same compound, the “Log Reduction C. albicans” value ([11]; O/W emulsion, 14 days) was 0 log, the “Log Reduction C. albicans” value ([11]; O/W emulsion, 28 days) was 0 log and the “Log Reduction C. albicans” value ([11]; W/O emulsion, 2 days) was 2 log. The “Log Reduction C. albicans” value ([11]; W/O emulsion, 7 days) was 3 log, the “Log Reduction C. albicans” value ([11]; W/O emulsion, 14 days) was 3 log and the “Log Reduction C. albicans” value ([11]; W/O emulsion, 28 days) was 5 log. For the same compound, the “Log Reduction A. niger” value ([12]; O/W emulsion, 2 days) was 0 log, the “Log Reduction A. niger” value ([12]; O/W emulsion, 7 days) was 0 log and the “Log Reduction A. niger” value ([12]; O/W emulsion, 14 days) was 0 log. The “Log Reduction A. niger” value ([12]; O/W emulsion, 28 days) was 0 log, the “Log Reduction A. niger” value ([12]; W/O emulsion, 2 days) was 0 log and the “Log Reduction A. niger” value ([12]; W/O emulsion, 7 days) was 1 log. The “Log Reduction A. niger” value ([12]; W/O emulsion, 14 days) was 2 log, the “Log Reduction A. niger” value ([12]; W/O emulsion, 28 days) was 2 log and the “Log Reduction E. coli” value ([13]; O/W emulsion, 2 days) was 1 log. The “Log Reduction E. coli” value ([13]; O/W emulsion, 7 days) was 1 log, the “Log Reduction E. coli” value ([13]; O/W emulsion, 14 days) was 2 log and the “Log Reduction E. coli” value ([13]; O/W emulsion, 28 days) was “≧4 log”. The “Log Reduction E. coli” value ([13]; W/O emulsion, 2 days) was 6 log, the “Log Reduction E. coli” value ([13]; W/O emulsion, 7 days) was 6 log and the “Log Reduction E. coli” value ([13]; W/O emulsion, 14 days) was 6 log. For the same compound, the “Log Reduction E. coli” value ([13]; W/O emulsion, 28 days) was 6 log, the “Log Reduction P. aerug.” value ([14]; O/W emulsion, 2 days) was “≧4 log” and the “Log Reduction P. aerug.” value ([14]; O/W emulsion, 7 days) was 5 log. The “Log Reduction P. aerug.” value ([14]; O/W emulsion, 14 days) was 5 log, the “Log Reduction P. aerug.” value ([14]; O/W emulsion, 28 days) was 5 log and the “Log Reduction P. aerug.” value ([14]; W/O emulsion, 2 days) was 5 log. For the same compound, the “Log Reduction P. aerug.” value ([14]; W/O emulsion, 7 days) was 5 log, the “Log Reduction P. aerug.” value ([14]; W/O emulsion, 14 days) was 5 log and the “Log Reduction P. aerug.” value ([14]; W/O emulsion, 28 days) was 5 log. The “Log Reduction S. aureus” value ([15]; O/W emulsion, 2 days) was 4 log, the “Log Reduction S. aureus” value ([15]; O/W emulsion, 7 days) was 6 log and the “Log Reduction S. aureus” value ([15]; O/W emulsion, 14 days) was 6 log. The “Log Reduction S. aureus” value ([15]; O/W emulsion, 28 days) was 6 log, the “Log Reduction S. aureus” value ([15]; W/O emulsion, 2 days) was 6 log and the “Log Reduction S. aureus” value ([15]; W/O emulsion, 7 days) was 6 log. For the same compound, the “Log Reduction S. aureus” value ([15]; W/O emulsion, 14 days) was 6 log, the “Log Reduction S. aureus” value ([15]; W/O emulsion, 28 days) was 6 log and the “log reduction S. aureus ATCC 6538 48 h” value [6] was >3 log. The “log reduction S. aureus ATCC 6538 72 h” value [6] was >3 log, the “log reduction C. albicans ATCC 10231 48 h” value [7] was >3 log and the “log reduction C. albicans ATCC 10231 72 h” value [7] was >3 log. For the same compound, the “log reduction A. niger ATCC 16404 48 h” value [8] was 1.8 log, the “log reduction A. niger ATCC 16404 72 h” value [8] was 2.3 log and the “log reduction E. coli ATCC 10536 48 h” value [9] was >3 log. The “log reduction E. coli ATCC 10536 72 h” value [9] was >3 log, the “log reduction P. aeruginosa ATCC 15442 48 h” value [10] was >3 log and the “log reduction P. aeruginosa ATCC 15442 72 h” value [10] was >3 log.

For benzalkonium chloride, the “stability of w/o or o/w emulsions formulated with the agent” value [16] was “No stable w/o or o/w emulsions could be formulated”.
